# Test results published in US20240083892A1 (BISICHEM CO., LTD., priority 2021, published 2024).
# Columns and labels:
# RIPK1 [1] = target: T1, RIPK1 (Homo sapiens, UniProt Q13546); experiment: Immunoblotting of TNFα induced phospho-RIPK1 (ser 166) levels; assay type: cell-based; conditions: HMC3 cells; Z-VAD-FMK, human TNFα 20 ng/ml, SM-164 100 nM; 7 h, serum free media; read-out: Cell-base RIPK1 activity: phspho-RIPK1 (Ser166)
# T1 construct: endogenous in cells; host or cells: HT-29 (KCLB 30038)
# T1 sequence (Q13546 1-671): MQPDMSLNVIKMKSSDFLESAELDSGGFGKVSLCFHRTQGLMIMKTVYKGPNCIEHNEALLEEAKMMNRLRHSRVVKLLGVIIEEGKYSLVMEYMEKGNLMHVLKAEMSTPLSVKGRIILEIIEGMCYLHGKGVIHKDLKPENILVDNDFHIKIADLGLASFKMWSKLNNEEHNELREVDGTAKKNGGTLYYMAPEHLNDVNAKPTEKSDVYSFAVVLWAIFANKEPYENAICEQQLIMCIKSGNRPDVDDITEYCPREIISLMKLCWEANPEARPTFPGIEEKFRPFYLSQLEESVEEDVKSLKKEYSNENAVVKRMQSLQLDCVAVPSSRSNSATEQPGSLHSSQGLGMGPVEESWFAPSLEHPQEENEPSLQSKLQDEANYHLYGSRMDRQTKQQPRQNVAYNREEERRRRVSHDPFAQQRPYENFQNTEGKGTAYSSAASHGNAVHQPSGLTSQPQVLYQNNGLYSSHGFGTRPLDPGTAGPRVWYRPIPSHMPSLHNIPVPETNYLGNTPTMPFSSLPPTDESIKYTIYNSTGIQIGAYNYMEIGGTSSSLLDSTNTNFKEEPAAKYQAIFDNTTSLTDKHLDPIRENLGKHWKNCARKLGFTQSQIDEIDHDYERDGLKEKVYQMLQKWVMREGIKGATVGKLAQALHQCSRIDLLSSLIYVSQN
# Protocol: Human colon carcinoma cell HT-29 (KCLB 30038), BV2 mouse microglial cell (cell was a kind gift from Dr. Nak-Yun Sung, Senior researcher at Korea Prime Pharmacy CO., LTD.) and human microglial cell HMC3 (ATCC® CRL-3304™). HT-29 cell was grown in Roswell Park Memorial Institute (RPMI) 1640, BV2 cell was grown in Dulbecco's Modified Eagle's Medium (DMEM) and HMC3 cell was grown in Minimum Essential Media Eagle (MEM) supplemented with 10% fetal bovine serum and 1% mixture of penicillin and streptomycin (Gibco). Cells were maintained at 37° C. in a humidified 5% CO2 atmosphere.
# Biological activity of the compounds of RIPK1 inhibitor was determined by measuring their ability to inhibitor TNFα induced phospho-RIPK1 (ser 166) levels, phospho-RIPK3 levels, phospho-MLKL levels in HMC3 cells. Cells were pretreated with Z-VAD-FMK […]. After 30 min, human TNFα 20 ng/ml, SM-164 100 nM and RIPK1 inhibitor (0.1, 1, 10 nM) were treated for 7 h under serum free media. Cells were lysed with cold lysis buffer containing 25 mM HEPES pH 7.6, […] NaCl, 1% NP40, 1% sodium deoxycholate, 0.1% SDS, and protease inhibitor mixture (Bimake, Houston, USA) using sonicators. The cells were centrifuged at 15,000 rpm, 4° C. for 5 min. After protein concentration of the lysates (supernatants) was quantified using BCA assay (Thermo Fisher Scientific, Waltham, USA), lysates were mixed with LDS sample buffer and heating at […] for 10 min. (Invitrogen, California, USA). […] The membranes are placed in an image analyzer (Imagequant, LAS 500, GE Healthcare), connected to a computer which allows the image generation (software Image reader LAS 500).
# RIPK1 [2] = target: T1, RIPK1; experiment: Cell-based necroptosis assay for RIPK1 activity (cell viability by CCK-8); conditions: HT-29 cells; Z-VAD-FMK 20 μM, human TNFα 10 ng/ml, SM-164 100 nM; 24 h; read-out: Cell-base RIPK1 activity: Necroptosis
# Method in brief: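 HT-29 cells pretreated 30 min with 20 μM Z-VAD-FMK, then necroptosis induced with human TNFα 10 ng/ml plus SM-164 100 nM alongside RIPK1 inhibitor (0.0001–10 uM) for 24 h. Viability read by CCK-8.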
SMILES,IC50 (RIPK1 [1]) [µM],IC50 (RIPK1 [2]) [µM]
"CN1C(=O)[C@@H](NC(=O)n2cc(Cc3cccc(F)c3)cn2)COc2ccc(OCC(O)c3cccnc3)cc21 (stereo partly drawn) [Example 70, 4-(3-fluorobenzyl)-N-((3S)-7-(2-hydroxy-2-(pyridin-3-yl)ethoxy)-5-methyl-4-oxo-2,3,4,5-tetrahydrobenzo[b][1,4]oxazepin-3-yl)-1H-pyrazole-1-carboxamide]",< 0.01,< 0.01
"CN1C(=O)[C@@H](NC(=O)n2cc(Cc3cccc(F)c3)cn2)COc2ccc(C(=O)N3CCCCC3)cc21 [Example 1, (S)-4-(3-fluorobenzyl)-N-(5-methyl-4-oxo-7-(piperidine-1-carbonyl)-2,3,4,5-tetrahydrobenzo[b][1,4]oxazepin-3-yl)-1H-pyrazole-1-carboxamide]",0.01 to 0.05,0.01 to 0.05
"CN1C(=O)[C@@H](NC(=O)n2cc(Cc3cccc(F)c3)cn2)COc2ccc(C(=O)N3CC4(COC4)C3)cc21 [Example 14, (S)-4-(3-fluorobenzyl)-N-(5-methyl-4-oxo-7-(2-oxa-6-azaspiro[3.3]heptane-6-carbonyl)-2,3,4,5-tetrahydrobenzo[b][1,4]oxazepin-3-yl)-1H-pyrazole-1-carboxamide]",0.01 to 0.05,0.01 to 0.05
CN(Cc1ccncc1)C(=O)c1ccc2c(c1)N(C)C(=O)[C@@H](NC(=O)n1cc(Cc3cccc(F)c3)cn1)CO2 [Example 11],< 0.01,< 0.01
"CN1C(=O)[C@@H](NC(=O)n2cc(Cc3cccc(F)c3)cn2)COc2ccc(OCC(=O)N3CC[C@H](O)C3)cc21 [Example 46, 4-(3-fluorobenzyl)-N—((S)-7-(2-((S)-3-hydroxypyrrolidin-1-yl)-2-oxoethoxy)-5-methyl-4-oxo-2,3,4,5-tetrahydrobenzo[b][1,4]oxazepin-3-yl)-1H-pyrazole-1-carboxamide]",< 0.01,0.01 to 0.05
"CN1C(=O)[C@@H](NC(=O)n2cc(Cc3cccc(F)c3)cn2)COc2ccc(OCCCc3cccnc3)cc21 [Example 29, (S)-4-(3-fluorobenzyl)-N-(5-methyl-4-oxo-7-(3-(pyridin-3-yl)propoxy)-2,3,4,5-tetrahydrobenzo[b][1,4]oxazepin-3-yl)-1H-pyrazole-1-carboxamide]",< 0.01,< 0.01
"CN1C(=O)[C@@H](NC(=O)n2cc(Cc3cccc(F)c3)cn2)COc2ccc(OCCOCCO)cc21 [Example 19, (S)-4-(3-fluorobenzyl)-N-(7-(2-(2-hydroxyethoxy)ethoxy)-5-methyl-4-oxo-2,3,4,5-tetrahydrobenzo[b][1,4]oxazepin-3-yl)-1H-pyrazole-1-carboxamide]",< 0.01,< 0.01
"CN1C(=O)[C@@H](NC(=O)n2cc(Cc3cccc(F)c3)cn2)COc2ccc(OCC#Cc3cccnc3)cc21 [Example 25, (S)-4-(3-fluorobenzyl)-N-(5-methyl-4-oxo-7-((3-(pyridin-3-yl)prop-2-yn-1-yl)oxy)-2,3,4,5-tetrahydrobenzo[b][1,4]oxazepin-3-yl)-1H-pyrazole-1-carboxamide]",< 0.01,< 0.01
"CN1C(=O)[C@@H](NC(=O)n2cc(Cc3cccc(F)c3)cn2)COc2ccc(OCC(=O)N3CC(C)(O)C3)cc21 [Example 49, (S)-4-(3-fluorobenzyl)-N-(7-(2-(3-hydroxy-3-methylazetidin-1-yl)-2-oxoethoxy)-5-methyl-4-oxo-2,3,4,5-tetrahydrobenzo[b][1,4]oxazepin-3-yl)-1H-pyrazole-1-carboxamide]",< 0.01,< 0.01

# More lines, main results first:
IC50 (RIPK1 [1]) [µM],SMILES,IC50 (RIPK1 [2]) [µM]
< 0.01,"CN1C(=O)[C@@H](NC(=O)n2cc(Cc3cccc(F)c3)cn2)COc2ccc(OCC(=O)N3CCOCC3)cc21 [Example 39, (S)-4-(3-fluorobenzyl)-N-(5-methyl-7-(2-morpholino-2-oxoethoxy)-4-oxo-2,3,4,5-tetrahydrobenzo[b][1,4]oxazepin-3-yl)-1H-pyrazole-1-carboxamide]",< 0.01
< 0.01,"CN1C(=O)[C@@H](NC(=O)n2cc(Cc3cccc(F)c3)cn2)COc2ccc(C(=O)N3CCC(C(C)(C)O)CC3)cc21 [Example 6, (S)-4-(3-fluorobenzyl)-N-(7-(4-(2-hydroxypropan-2-yl)piperidine-1-carbonyl)-5-methyl-4-oxo-2,3,4,5-tetrahydrobenzo[b][1,4]oxazepin-3-yl)-1H-pyrazole-1-carboxamide]",< 0.01
< 0.01,"CN1C(=O)[C@@H](NC(=O)n2cc(Cc3cccc(F)c3)cn2)COc2ccc(OCC(=O)N3CCC(C)(O)CC3)cc21 [Example 41, (S)-4-(3-fluorobenzyl)-N-(7-(2-(4-hydroxy-4-methylpiperidin-1-yl)-2-oxoethoxy)-5-methyl-4-oxo-2,3,4,5-tetrahydrobenzo[b][1,4]oxazepin-3-yl)-1H-pyrazole-1-carboxamide]",< 0.01
< 0.01,"CN1C(=O)[C@@H](NC(=O)n2cc(Cc3cccc(F)c3)cn2)COc2ccc(OCC(O)c3ccncc3)cc21 (stereo partly drawn) [Example 71, 4-(3-fluorobenzyl)-N-((3S)-7-(2-hydroxy-2-(pyridin-4-yl)ethoxy)-5-methyl-4-oxo-2,3,4,5-tetrahydrobenzo[b][1,4]oxazepin-3-yl)-1H-pyrazole-1-carboxamide]",< 0.01
< 0.01,"CN1C(=O)[C@@H](NC(=O)n2cc(Cc3cccc(F)c3)cn2)COc2ccc(OCc3nccn3C)cc21 [Example 63, (S)-4-(3-fluorobenzyl)-N-(5-methyl-7-((1-methyl-1H-imidazol-2-yl)methoxy)-4-oxo-2,3,4,5-tetrahydrobenzo[b][1,4]oxazepin-3-yl)-1H-pyrazole-1-carboxamide]",< 0.01
< 0.01,"CN1C(=O)[C@@H](NC(=O)n2cc(Cc3cccc(F)c3)cn2)COc2ccc(C(=O)N3CCC(C)(O)CC3)cc21 [Example 5, (S)-4-(3-fluorobenzyl)-N-(7-(4-hydroxy-4-methylpiperidine-1-carbonyl)-5-methyl-4-oxo-2,3,4,5-tetrahydrobenzo[b][1,4]oxazepin-3-yl)-1H-pyrazole-1-carboxamide]",< 0.01
< 0.01,"CN1C(=O)[C@@H](NC(=O)n2cc(Cc3cccc(F)c3)cn2)COc2ccc(OCCCC(C)(C)O)cc21 [Example 26, (S)-4-(3-fluorobenzyl)-N-(7-((4-hydroxy-4-methylpentyl)oxy)-5-methyl-4-oxo-2,3,4,5-tetrahydrobenzo[b][1,4]oxazepin-3-yl)-1H-pyrazole-1-carboxamide]",< 0.01
< 0.01,"CN1C(=O)[C@@H](NC(=O)n2cc(Cc3cccc(F)c3)cn2)COc2ccc(OCCCC3CCCCC3)cc21 [Example 16, (S)—N-(7-(3-cyclohexylpropoxy)-5-methyl-4-oxo-2,3,4,5-tetrahydrobenzo[b][1,4]oxazepin-3-yl)-4-(3-fluorobenzyl)-1H-pyrazole-1-carboxamide]",< 0.01
< 0.01,"CN1C(=O)[C@@H](NC(=O)n2cc(Cc3cccc(F)c3)cn2)COc2ccc(OCc3ccc(F)nc3)cc21 [Example 59, (S)-4-(3-fluorobenzyl)-N-(7-((6-fluoropyridin-3-yl)methoxy)-5-methyl-4-oxo-2,3,4,5-tetrahydrobenzo[b][1,4]oxazepin-3-yl)-1H-pyrazole-1-carboxamide]",< 0.01
